SMILES strings stand for the structures. pIC50: −log10 of the molar value. Where a name gives a salt, the structure may show the parent alone.

Results on 5 molecules are retold here after US20070088021A1, “4-haloisoquinoline derivative and drug containing the same” (priority 2005, published 2007).

Assay [1] deals with T1, Rho kinase.
T1 construct: IC50 for Rho kinase
Briefly: Rho-kinase assay (measurement of kinase inhibitory activity). In kind it is biochemical. As to conditions: method of Patent Document 1. As to the method: A Rho-kinase assay was performed according to the method described in Patent Document 1, and the 50% inhibitory concentration (hereinafter referred to as the “IC50 value”) for Rho kinase was calculated.

Assay [2] deals with Rho kinase. The conditions noted are these: order of magnitude stated in background; cited from earlier work.

As to `C[C@H]1CNCCCN1S(=O)(=O)c1cccc2cncc(Br)c12` [Dihydrochloride of Compound (1) X = Br, 2-(S)-1-(4-bromoisoquinoline-5-sulfonyl)-2-methylhomopiperazine], the pIC50 at Rho kinase [1] is 8.24.

With `Cc1cncc2cccc(S(=O)(=O)N3CCCNC[C@@H]3C)c12.Cl` [(S)-(+)-hexahydro-2-methyl-1-(4-methyl-5-isoquinolinesulfonyl)-1H-1,4-diazepine hydrochloride], on Rho kinase [2], the “50% inhibitory concentration (IC50) for Rho kinase” value is 1/100.

At Rho kinase [1], `C[C@H]1CNCCCN1S(=O)(=O)c1cccc2cncc(F)c12` [Dihydrochloride of Compound (1) X = F] had a pIC50 of 7.07. On the same count and under the same terms, in the case of `CC1CNCCCN1S(=O)(=O)c1cccc2cncc(Cl)c12` (centres unmarked) [Dihydrochloride of Compound (1) X = Cl] it was 7.59. Still for that read-out and setting: in the case of `Cc1cncc2cccc(S(=O)(=O)N3CCCNC[C@@H]3C)c12` [Reference Compound B, (S)-(+)-hexahydro-2-methyl-1-(4-methyl-5-isoquinolinesulfonyl)-1H-1,4-diazepine hydrochloride, reference compound] it was 7.92.

As usually defined, the pIC50 is −log10 of the IC50, conventionally taken in molar units.
